According to patent publication EP3733658B1, “PRENYLATED BENZOPYRANES AS PPAR AGONISTS” (Universitat de València, priority 2017, dated 2019):

What was measured:
hPPARα = target: T1, hPPARα (Homo sapiens, UniProt Q07869); experiment: PPAR/Gal4 chimera luciferase reporter transactivation assay in transiently transfected Cos-7 cells (hPPARα); format: cell-based
T1 sequence (Q07869 167-468): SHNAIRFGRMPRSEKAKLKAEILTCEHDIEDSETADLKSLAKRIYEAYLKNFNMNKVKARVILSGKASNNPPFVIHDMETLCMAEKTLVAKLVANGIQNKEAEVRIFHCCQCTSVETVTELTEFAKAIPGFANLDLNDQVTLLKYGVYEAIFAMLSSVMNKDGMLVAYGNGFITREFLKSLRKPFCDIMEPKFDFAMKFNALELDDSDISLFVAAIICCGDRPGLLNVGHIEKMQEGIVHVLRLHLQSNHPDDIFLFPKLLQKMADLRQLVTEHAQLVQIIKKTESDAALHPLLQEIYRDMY
Protocol: (§1) The cells were maintained under standard culture conditions (Dulbecco modified minimum essential Eagle medium, DMEM) supplemented with 10% fetal calf serum (FCS) at 37°C in 5% […] CO2 atmosphere. The medium was changed every 2 days. The Cos-7 cells were seeded in 60 mm discs at a density of 5.5 × 10^5 cells/disc in DMEM supplemented with 10% FCS and incubated at 37°C for 16 h before transfection. The cells were transfected in DMEM using jetPEI, with reporter (pG5-TK-pGL3) and expression (pGal4-h, hPPARα or hPPARγ) plasmids. The expression plasmid pCMV-β-galactosidase was cotransfected as a control for transfection efficacy. After 16 h the transfection was stopped adding DMEM supplemented with 10% FCS, and the cells were trypsinised and seeded in 96-well plates and incubated for 6 h in DMEM containing 10% FCS. Subsequently, the cells were incubated for 24 h in DMEM containing 0.2% FCS and increasing concentrations of the compounds or the vehicle (DMSO, maximum concentration 0.1%) were tested. Finally, the cells were washed once with PBS cooled on ice, lysed and the luciferase and β-galactosidase assays were performed.
(§2) To evaluate the compounds for PPAR transcriptional activity, the tests were conducted in a PPAR/Gal4 chimera of a human luciferase reporter gene to determine the maximum transactivation response of each compound.

hPPARγ = target: T2, hPPARγ (Homo sapiens, UniProt P37231); experiment: PPAR/Gal4 chimera luciferase reporter transactivation assay in transiently transfected Cos-7 cells (hPPARγ); format: cell-based
T2 sequence (P37231 238-505): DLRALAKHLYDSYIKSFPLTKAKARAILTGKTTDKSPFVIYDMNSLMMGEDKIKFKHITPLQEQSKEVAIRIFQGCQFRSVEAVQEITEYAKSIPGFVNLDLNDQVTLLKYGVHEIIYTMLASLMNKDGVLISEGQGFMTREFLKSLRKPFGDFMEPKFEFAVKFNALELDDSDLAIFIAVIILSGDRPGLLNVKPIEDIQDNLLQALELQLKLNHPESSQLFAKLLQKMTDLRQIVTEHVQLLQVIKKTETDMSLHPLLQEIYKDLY
Protocol: as §1, §2

[1] = test system: mononuclear cell adhesion to HUVEC induced by TNFα; experiment: Parallel flow chamber: mononuclear cell adhesion to TNFα-stimulated HUVEC; format: cell-based, human
Protocol: The parallel flow camera technique was used, which allows viewing cell adhesion under dynamic physiological flow conditions.
In the execution of this study, neutrophils and mononuclear cells were perfused through monolayers of HUVEC previously stimulated, or not, with TNFα (20 ng/mL) for 24 h. For this purpose, the neutrophils and human mononuclear cells were obtained in suspension from healthy volunteers by the Ficoll-Hypaque method, centrifuging by density gradient. Freshly isolated cells (1 × 10^6/mL) were perfused through the monolayer of endothelial cells (HUVEC) stimulated, or not, with TNFα for 24 h. In all the experiments the interactions of the leukocytes were determined after being perfused for 5 min at 0.5 dyne/cm^2. The HUVEC plates were placed in the flow chamber (GlycoTech, Gaithersburg, MD) and a camera was coupled to a phase-contrast inverted microscope (Axio Observer A1 Carl Zeiss microscope, Thornwood, NY) to view cell adhesion (20x lens and 10x eyepiece). In addition, the images were recorded on video for subsequent analysis.

ICAM-1 = experiment: Flow cytometry of TNFα-induced ICAM-1 expression in HUVEC; format: cell-based, human; conditions: TNFα 20 ng/mL 24 h
Protocol: (§3) The cells were collected from the flasks using accutase (StemPro® Accutase® Cell Dissociation Reagent, ThermoFischer Scientific, Waltham, MA).
(§4) Then they were washed and incubated for 1 h with a APC-conjugated mAb antibody against human VCAM-1 (100 µg/mL; clone STA, BioLegend, San Diego, CA), a FITC- conjugated mAb against human ICAM-1 (400 µg/mL; clone HA58, BioLegend, San Diego, CA), a PE-conjugated mAb against human CX3CL1 (1.25 µg/mL; clone 51637, R&D Systems, Minneapolis, MN) or with a APC-conjugated mAb antibody against human CXCL16 (clone 256213, R&D Systems, Abingdon, UK), all at a dilution of 1:25 in 3% BSA/PBS. The samples were analyzed using a BD FACSVerse Flow Cytometer (BD Biosciences, San Jose, CA).

VCAM-1 = experiment: Flow cytometry of TNFα-induced VCAM-1 expression in HUVEC; format: cell-based, human; conditions: TNFα 20 ng/mL 24 h
Protocol: as §3, §4

CX3CL1 = experiment: Flow cytometry of TNFα-induced CX3CL1 (fractalkine) expression in HUVEC; format: cell-based
Protocol: as §3, §4

p38 MAPK = experiment: Flow cytometry of TNFα-induced p38 MAPK phosphorylation in HUVEC; format: cell-based, human; conditions: TNFα 20 ng/mL 1 h
Protocol: (§5) HUVEC were previously incubated for 24 h with compound 1 (10 µM), for use according to the present invention, or with compound 9 (3 µM), of the invention, and stimulated for 1 h with TNFα (20 ng/mL). The endothelial cells were fixed with BD Cytofix Fixation Buffer (BD Biosciences, San Jose, CA) and permeabilized with BD Sol Perm III solution (BD Biosciences, San Jose, CA) and sequentially stained with a 1:10 dilution of a PE-conjugated mAb antibody against human p65 (pS529, clone K10-895.12.50; BD Biosciences, San Jose, CA) and a 1:10 dilution of Alexa Fluor-conjugated mAb antibody against human p38 MAPK ([…], clone 36/p38; BD Biosciences, San Jose, CA). The cells were analyzed with a BD FACSVerse flow cytometer (BD Biosciences, San Jose, CA).

NF-κB (p65) = experiment: Flow cytometry of TNFα-induced p65 (NF-κB) phosphorylation in HUVEC; format: cell-based, human; conditions: TNFα 20 ng/mL 1 h
Protocol: as §5

[2] = ratio of IC50, mononuclear cell adhesion

Compound | hPPARα Efficacy (%) (hPPARα; maximum activity as percentage of the maximum activity of WY-14643) | EC50 (hPPARα; read-out: hPPARα EC50, Cos-7 cells, 24 h, tested 0.001 to 10 µM) [nM] | hPPARγ Efficacy (%) (hPPARγ; maximum activity as percentage of the maximum activity of rosiglitazone) | EC50 (hPPARγ; read-out: hPPARγ EC50, Cos-7 cells, 24 h, tested 0.001 to 10 µM) [nM] | potency times greater than polycerasoidol [1, 2] | potency times greater than rosiglitazone [1, 2] | expression of ICAM-1 induced by TNFα (ICAM-1; 3 µM) | expression of VCAM-1 induced by TNFα (VCAM-1; 3 µM) | expression of CX3CL1 induced by TNFα (CX3CL1; 3 µM, TNFα 20 ng/mL 24 h) | decrease of the activation of p38 MAPK (p38 MAPK; 3 µM) [%] | activation of NF-κB induced by TNFα (NF-κB (p65); 3 µM) | Emax (hPPARα; COS-7, read-out: hPPARα Efficacy (%)) [%] | Emax (hPPARγ; COS-7, read-out: hPPARγ Efficacy (%)) [%] | IC50 ([1]; Homo sapiens, HUVEC, pretreatment 20 h, TNFα 20 ng/mL 24 h, perfusion 5 min at 0.5 dyn/cm2, read-out: IC50 adhesion of HUVEC-mononuclear cells) [nM] | times less potent than rosiglitazone [1, 2] | inhibition of ICAM-1 expression induced by TNFα (ICAM-1; 10 µM, 20 h pretreatment) [%] | inhibition of VCAM-1 expression induced by TNFα (VCAM-1; 10 µM, 20 h pretreatment) [%] | reduced the expression of fractalkine (CX3CL1) (CX3CL1; 10 µM, TNFα 24 h) [%] | decrease of the activation of p38 MAPK (p38 MAPK; 10 µM) [%] | activation of NF-κB induced by TNFα (NF-κB (p65); 10 µM)
CCOC(=O)CCC(C)=CCCC1(C)CCc2cc(OCc3ccc(F)cc3)ccc2O1 (centres unmarked) [Compound 9] | 251 | 300 | 57 | 400 | ~16 | approximately 3.6 | but not ICAM-1 | significant decrease | significant decrease | 71.9 | inhibit significantly | – | – | – | – | – | – | – | – | –
C/C(=C\CCC1(C)CCc2cc(O)cc(C)c2O1)CC/C=C(\C)C(=O)O (centres unmarked) [Polycerasoidol, 1, polycerasoidol] | – | – | – | – | – | – | – | – | – | – | – | 107 | 95 | 4900 | 5 | 23.8 | 87.8 | 77.6 | 63.4 | inhibit significantly
